Data from ChEMBL document CHEMBL1221402, “Bioactivity-guided isolation of 1,2,3,4,6-Penta-O-galloyl-D-glucopyranose from Paeonia lactiflora roots as a PTP1B inhibitor” (J Nat Prod, 2010).
Calls of active or inactive are those of the source. No cut-off for these calls is given here.

Assays:
[1] = target: T1, Tyrosine-protein phosphatase non-receptor type 1 (Homo sapiens, UniProt P18031); test: Inhibition of human recombinant PTP1B
T1 sequence (P18031 whole entry): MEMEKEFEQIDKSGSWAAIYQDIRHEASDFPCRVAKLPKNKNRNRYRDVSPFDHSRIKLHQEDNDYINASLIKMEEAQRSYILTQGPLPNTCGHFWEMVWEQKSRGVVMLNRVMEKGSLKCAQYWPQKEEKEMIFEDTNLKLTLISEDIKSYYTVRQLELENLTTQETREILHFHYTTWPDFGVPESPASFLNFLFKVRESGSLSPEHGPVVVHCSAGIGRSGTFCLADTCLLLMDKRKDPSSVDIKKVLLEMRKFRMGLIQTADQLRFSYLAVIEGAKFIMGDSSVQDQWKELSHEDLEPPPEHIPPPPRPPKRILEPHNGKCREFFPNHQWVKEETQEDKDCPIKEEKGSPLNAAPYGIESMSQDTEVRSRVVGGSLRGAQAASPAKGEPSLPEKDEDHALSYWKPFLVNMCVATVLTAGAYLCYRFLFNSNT

[2] = target: Insulin receptor (Homo sapiens) (UniProt P06213); test: Induction of IR phosphorylation in insulin-stimulated starved human HCC-1.2 cells at 10 uM pretreated 2 hrs before insulin challenge by Western blot analysis
[3] = target: T2, Tyrosine-protein phosphatase non-receptor type 2 (Homo sapiens, UniProt P17706); test: Inhibition of TCPTP
T2 sequence (P17706 whole entry): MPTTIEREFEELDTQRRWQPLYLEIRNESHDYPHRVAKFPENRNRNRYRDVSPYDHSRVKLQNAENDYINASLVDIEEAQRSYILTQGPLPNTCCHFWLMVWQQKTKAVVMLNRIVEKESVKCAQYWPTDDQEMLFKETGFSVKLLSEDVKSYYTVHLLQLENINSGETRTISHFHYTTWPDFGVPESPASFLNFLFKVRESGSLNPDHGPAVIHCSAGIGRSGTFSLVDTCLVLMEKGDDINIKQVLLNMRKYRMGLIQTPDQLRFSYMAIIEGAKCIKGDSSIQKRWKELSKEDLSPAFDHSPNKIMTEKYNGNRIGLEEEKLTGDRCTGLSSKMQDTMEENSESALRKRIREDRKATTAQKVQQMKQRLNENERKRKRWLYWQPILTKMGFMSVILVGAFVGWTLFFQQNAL

[4] = target: Receptor-type tyrosine-protein phosphatase F (Homo sapiens) (UniProt P10586); test: Inhibition of LAR at <50 uM
[5] = target: T3, Tyrosine-protein phosphatase non-receptor type 11 (Homo sapiens) (UniProt Q06124); test: Inhibition of SHP-2 at <50 uM
T3 sequence (whole entry): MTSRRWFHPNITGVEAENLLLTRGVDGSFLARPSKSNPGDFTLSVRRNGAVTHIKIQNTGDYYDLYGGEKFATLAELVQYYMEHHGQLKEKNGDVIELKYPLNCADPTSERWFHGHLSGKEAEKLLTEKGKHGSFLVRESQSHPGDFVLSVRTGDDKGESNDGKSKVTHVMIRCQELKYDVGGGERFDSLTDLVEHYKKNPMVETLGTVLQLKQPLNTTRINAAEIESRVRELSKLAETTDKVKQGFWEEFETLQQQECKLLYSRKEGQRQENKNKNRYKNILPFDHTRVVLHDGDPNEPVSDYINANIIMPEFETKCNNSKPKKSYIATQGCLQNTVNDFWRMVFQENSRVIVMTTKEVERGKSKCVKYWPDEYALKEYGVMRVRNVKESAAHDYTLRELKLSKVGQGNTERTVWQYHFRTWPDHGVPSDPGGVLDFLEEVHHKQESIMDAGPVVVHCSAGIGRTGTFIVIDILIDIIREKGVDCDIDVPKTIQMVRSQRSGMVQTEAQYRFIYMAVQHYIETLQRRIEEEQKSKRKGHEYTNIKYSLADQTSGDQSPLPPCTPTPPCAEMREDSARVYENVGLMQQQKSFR

Receptor-type tyrosine-protein phosphatase F (Homo sapiens), sequence (P10586 whole entry): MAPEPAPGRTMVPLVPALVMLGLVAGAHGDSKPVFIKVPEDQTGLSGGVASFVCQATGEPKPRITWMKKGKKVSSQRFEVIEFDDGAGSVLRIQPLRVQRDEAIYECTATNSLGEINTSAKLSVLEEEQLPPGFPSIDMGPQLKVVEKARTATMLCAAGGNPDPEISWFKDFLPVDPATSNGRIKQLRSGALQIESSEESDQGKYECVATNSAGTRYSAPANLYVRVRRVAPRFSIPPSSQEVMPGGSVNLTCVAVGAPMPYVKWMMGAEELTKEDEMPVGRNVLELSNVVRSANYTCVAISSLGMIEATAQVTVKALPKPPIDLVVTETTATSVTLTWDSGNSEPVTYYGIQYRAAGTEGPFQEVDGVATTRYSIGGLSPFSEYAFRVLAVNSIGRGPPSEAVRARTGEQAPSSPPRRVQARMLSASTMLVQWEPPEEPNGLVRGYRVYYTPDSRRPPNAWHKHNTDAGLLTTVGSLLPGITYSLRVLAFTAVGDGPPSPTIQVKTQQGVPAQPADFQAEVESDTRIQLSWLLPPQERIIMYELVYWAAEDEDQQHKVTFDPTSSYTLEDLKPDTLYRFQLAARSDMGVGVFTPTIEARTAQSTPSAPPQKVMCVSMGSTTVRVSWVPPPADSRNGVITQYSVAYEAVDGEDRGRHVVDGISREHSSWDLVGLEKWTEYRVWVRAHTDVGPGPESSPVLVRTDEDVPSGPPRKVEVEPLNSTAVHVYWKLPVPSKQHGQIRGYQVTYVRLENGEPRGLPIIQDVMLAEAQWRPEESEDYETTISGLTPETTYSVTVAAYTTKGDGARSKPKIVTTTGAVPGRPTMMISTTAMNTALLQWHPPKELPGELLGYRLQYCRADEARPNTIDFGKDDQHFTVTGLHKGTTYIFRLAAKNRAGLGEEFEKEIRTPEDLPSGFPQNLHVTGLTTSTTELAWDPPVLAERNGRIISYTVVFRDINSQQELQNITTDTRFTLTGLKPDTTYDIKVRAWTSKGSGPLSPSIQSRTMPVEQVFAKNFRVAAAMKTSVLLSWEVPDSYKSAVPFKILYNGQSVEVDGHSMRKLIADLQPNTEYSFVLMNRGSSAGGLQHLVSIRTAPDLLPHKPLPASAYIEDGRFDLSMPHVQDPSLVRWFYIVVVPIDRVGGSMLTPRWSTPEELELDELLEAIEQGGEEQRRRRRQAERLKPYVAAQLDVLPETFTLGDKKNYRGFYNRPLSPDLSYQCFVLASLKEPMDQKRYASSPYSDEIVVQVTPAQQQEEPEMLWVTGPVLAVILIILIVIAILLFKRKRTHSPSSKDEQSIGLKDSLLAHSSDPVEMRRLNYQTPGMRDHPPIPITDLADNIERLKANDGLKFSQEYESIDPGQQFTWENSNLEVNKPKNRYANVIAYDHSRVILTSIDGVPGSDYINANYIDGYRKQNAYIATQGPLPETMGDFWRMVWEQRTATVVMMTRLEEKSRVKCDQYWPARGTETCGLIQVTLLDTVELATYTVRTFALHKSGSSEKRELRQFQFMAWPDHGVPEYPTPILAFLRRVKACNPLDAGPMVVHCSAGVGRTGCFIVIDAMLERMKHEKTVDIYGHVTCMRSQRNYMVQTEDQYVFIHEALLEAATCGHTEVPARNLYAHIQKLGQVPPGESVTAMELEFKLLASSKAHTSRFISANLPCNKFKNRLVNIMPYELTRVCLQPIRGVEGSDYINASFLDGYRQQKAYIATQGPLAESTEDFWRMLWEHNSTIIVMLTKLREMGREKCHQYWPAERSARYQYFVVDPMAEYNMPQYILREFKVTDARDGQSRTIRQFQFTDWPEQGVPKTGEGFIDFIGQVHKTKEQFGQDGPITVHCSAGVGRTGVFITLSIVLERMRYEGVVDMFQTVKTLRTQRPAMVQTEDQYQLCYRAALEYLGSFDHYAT
Insulin receptor (Homo sapiens), sequence (P06213 28-758 limits assumed): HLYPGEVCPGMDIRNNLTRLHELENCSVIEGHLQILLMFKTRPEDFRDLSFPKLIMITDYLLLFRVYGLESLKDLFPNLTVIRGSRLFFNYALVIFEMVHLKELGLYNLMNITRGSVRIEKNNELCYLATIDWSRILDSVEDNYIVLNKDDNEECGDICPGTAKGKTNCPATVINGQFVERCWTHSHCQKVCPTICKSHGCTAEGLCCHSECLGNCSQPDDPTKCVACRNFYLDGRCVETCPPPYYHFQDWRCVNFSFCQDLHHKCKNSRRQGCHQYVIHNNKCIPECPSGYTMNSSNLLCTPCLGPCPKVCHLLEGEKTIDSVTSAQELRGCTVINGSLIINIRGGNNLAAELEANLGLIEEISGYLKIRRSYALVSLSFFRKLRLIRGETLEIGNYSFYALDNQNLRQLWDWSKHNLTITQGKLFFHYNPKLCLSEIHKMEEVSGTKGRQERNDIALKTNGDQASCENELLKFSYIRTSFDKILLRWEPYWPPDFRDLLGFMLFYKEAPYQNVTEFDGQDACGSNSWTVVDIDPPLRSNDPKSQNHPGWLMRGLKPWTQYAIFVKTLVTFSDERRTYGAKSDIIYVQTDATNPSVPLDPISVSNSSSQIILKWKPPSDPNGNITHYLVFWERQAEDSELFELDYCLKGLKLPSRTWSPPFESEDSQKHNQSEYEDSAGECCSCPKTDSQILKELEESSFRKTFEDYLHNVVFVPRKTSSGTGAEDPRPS
Insulin receptor (Homo sapiens), sequence (P06213 763-1382 limits assumed): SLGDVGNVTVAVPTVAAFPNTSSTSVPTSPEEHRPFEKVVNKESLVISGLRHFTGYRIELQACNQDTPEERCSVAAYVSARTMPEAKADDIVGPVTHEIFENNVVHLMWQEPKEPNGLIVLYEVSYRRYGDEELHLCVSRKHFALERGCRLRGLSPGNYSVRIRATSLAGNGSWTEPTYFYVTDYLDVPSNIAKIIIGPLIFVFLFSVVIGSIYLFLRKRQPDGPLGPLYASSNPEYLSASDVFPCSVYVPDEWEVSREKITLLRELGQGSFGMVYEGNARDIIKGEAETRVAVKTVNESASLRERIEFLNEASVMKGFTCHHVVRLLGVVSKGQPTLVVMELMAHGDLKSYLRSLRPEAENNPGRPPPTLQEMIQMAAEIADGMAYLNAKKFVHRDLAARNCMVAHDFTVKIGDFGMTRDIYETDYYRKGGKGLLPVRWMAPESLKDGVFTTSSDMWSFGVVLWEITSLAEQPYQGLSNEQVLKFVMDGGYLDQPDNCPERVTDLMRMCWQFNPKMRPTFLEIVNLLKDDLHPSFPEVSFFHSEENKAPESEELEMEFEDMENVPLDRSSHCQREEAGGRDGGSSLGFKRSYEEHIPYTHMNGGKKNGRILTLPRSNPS

## O=C(OC[C@H]1O[C@H](OC(=O)c2cc(O)c(O)c(O)c2)[C@H](OC(=O)c2cc(O)c(O)c(O)c2)[C@@H](OC(=O)c2cc(O)c(O)c(O)c2)[C@@H]1OC(=O)c1cc(O)c(O)c(O)c1)c1cc(O)c(O)c(O)c1
[1]
  IC50: 4.8 µM
[2]
  Activity: Active
[3]
  IC50: 70 nM
[4]
  inhibition: inactive
[5]
  inhibition: inactive
